Source: patent US4617149A, “Growth hormone release factor analogs” (Eli Lilly and Company, priority 1983, dated 1986)
No end group written: not given here.

How the values were obtained:
[1] = stability of hpGRF control solution by HPLC; type: physicochemical; details: 0.5 mg hpGRF/ml in 0.01M HCl, stored at 22° C., over six hours
Procedure: One mg of hpGRF, obtained from Peninsula Laboratories, was solubilized in one ml of 0.01M hydrochloric acid ([…]). The solution was divided into four equal aliquots, and each was diluted to a concentration of 0.5 mg hpGRF/ml by the addition of 250 μl of 0.01M HCl. The first aliquot was removed and stored at 22° C. for the duration of the experimentation, to serve as a control. Analysis of the control and the extent of each respective chemical modification with hydrogen peroxide, cyanogen bromide, and methyl iodide, described hereinbelow, was performed by high performance liquid chromatography (HPLC). Quantitation was achieved by peak height measurement at 214 nm, of a symmetrical peak eluting at 10 minutes from a (0.46×25 cm) Zorbax C8, 150 Angstrom reverse phase column, at 45° C. in 0.1M ammonium phosphate buffer, pH 7.2/27.5% 1-propanol, v/v. […] Each modification reaction was quenched by a 5:1 dilution (hpGRF final concentration of 0.1 mg/ml) with addition of two ml of 0.1M methionine/0.01M HCl, pH 3.5. Samples were divided and stored at -20° C. and 4° C. prior to analysis of biological activity.

[2] = tested on: pituitary release of growth hormone; details: in vitro, cited from earlier work
[3] = peptide obtained by selective S-methylation of glucagon; cited from earlier work

CC[C@H](C)[C@H](NC(=O)[C@H](C)NC(=O)[C@H](CC(=O)O)NC(=O)[C@H](C)NC(=O)[C@@H](N)Cc1ccc(O)cc1)C(=O)N[C@@H](Cc1ccccc1)C(=O)N[C@H](C(=O)N[C@@H](CC(N)=O)C(=O)N[C@@H](CO)C(=O)N[C@@H](Cc1ccc(O)cc1)C(=O)N[C@@H](CCCNC(=N)N)C(=O)N[C@@H](CCCCN)C(=O)N[C@H](C(=O)N[C@@H](CC(C)C)C(=O)NCC(=O)N[C@@H](CCC(N)=O)C(=O)N[C@@H](CC(C)C)C(=O)N[C@@H](CO)C(=O)N[C@@H](C)C(=O)N[C@@H](CCCNC(=N)N)C(=O)N[C@@H](CCCCN)C(=O)N[C@@H](CC(C)C)C(=O)N[C@@H](CC(C)C)C(=O)N[C@@H](CCC(N)=O)C(=O)N[C@@H](CC(=O)O)C(=O)N[C@H](C(=O)N[C@@H](CCSC)C(=O)N[C@@H](CO)C(=O)N[C@@H](CCCNC(=N)N)C(=O)N[C@@H](CCC(N)=O)C(=O)N[C@@H](CCC(N)=O)C(=O)NCC(=O)N[C@@H](CCC(=O)O)C(=O)N[C@@H](CO)C(=O)N[C@@H](CC(N)=O)C(=O)N[C@@H](CCC(N)=O)C(=O)N[C@@H](CCC(=O)O)C(=O)N[C@@H](CCCNC(=N)N)C(=O)NCC(=O)N[C@@H](C)C(=O)N[C@@H](CCCNC(=N)N)C(=O)N[C@@H](C)C(=O)N[C@@H](CCCNC(=N)N)C(=O)N[C@@H](CC(C)C)C(N)=O)[C@@H](C)CC)C(C)C)[C@@H](C)O [hpGRF]
change in HPLC peak elution time or height [1]: no change in peak elution time or height

hpGRF(1-27)-NH2: shortened GRF analog prepared and tested by Rivier et al. (YADAIFTNSYRKVLGQLSARKLLQDIM-NH2; UniProt P01286 32-58, looked up, fragment)
intrinsic activity [2]: full intrinsic activity
potency as % of the potency of hpGRF(1-40)-OH ([2]; relative to hpGRF(1-40)-OH): 10-20%

glucagon
activity as % of the inherent activity of the native hormone [3]: less than 1%
